Results taken from US20210228713A1, “TLR7 PEPTIDE CONJUGATES” (Apros Therapeutics, Inc., priority 2018, published 2021).
Read-outs that look alike come from different tables or passages of the source. Residues, ends and D or L forms follow the SMILES beside them. No end group written: not given here. *: point of attachment. X1 = CCCC[C@@H](CCS(C)(=O)=O)Nc1nc(N)nc(C)c1Cc1cc(CC(=O)*)ccc1OC

Target: T1, human TLR7 (hTLR7) (Homo sapiens, UniProt Q9NYK1)
T1 construct: host or cells: HEK293 (HEK-Blue hTLR7)
T1 sequence (Q9NYK1 27-1049): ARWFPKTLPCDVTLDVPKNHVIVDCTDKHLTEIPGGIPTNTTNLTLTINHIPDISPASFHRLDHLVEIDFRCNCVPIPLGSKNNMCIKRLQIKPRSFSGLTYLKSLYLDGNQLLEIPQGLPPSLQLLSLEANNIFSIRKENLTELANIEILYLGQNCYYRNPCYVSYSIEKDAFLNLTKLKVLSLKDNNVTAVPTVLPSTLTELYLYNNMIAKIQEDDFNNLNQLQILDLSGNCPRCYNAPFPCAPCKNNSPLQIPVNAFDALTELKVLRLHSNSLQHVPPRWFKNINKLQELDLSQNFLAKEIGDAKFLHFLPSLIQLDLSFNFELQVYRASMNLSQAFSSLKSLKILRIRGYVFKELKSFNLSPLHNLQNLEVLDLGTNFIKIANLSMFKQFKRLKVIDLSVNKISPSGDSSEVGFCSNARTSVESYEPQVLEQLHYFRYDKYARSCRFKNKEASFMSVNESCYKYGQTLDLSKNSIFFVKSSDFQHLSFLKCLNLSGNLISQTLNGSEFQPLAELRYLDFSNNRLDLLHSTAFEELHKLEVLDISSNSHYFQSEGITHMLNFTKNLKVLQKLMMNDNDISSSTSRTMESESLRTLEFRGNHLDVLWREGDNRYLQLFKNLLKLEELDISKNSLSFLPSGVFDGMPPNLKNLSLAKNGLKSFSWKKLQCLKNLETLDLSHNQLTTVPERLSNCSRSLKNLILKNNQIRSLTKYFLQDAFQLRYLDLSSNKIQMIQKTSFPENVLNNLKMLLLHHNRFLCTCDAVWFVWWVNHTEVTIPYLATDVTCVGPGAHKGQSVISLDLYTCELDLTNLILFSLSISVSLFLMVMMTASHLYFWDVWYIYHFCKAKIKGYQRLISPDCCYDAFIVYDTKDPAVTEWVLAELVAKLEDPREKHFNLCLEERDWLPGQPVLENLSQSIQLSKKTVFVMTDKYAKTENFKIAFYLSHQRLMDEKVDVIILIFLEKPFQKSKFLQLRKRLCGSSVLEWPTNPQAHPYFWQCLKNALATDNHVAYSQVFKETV
Test: HEK-Blue hTLR7 cell assay (NF-kB/AP-1 driven SEAP reporter)
Format: cell-based
Excerpt: HEK-Blue™ TLR7 cells were purchased from Invivogen (San Diego, Calif.). The following description was taken from the product information sheet.
“HEK-Blue™ hTLR7 cells are designed for studying the stimulation of human TLR7 (hTLR7) by monitoring the activation of NF-kB. HEK-Blue™ hTLR7 cells were obtained by co-transfection of the hTLR7 gene and an optimized secreted embryonic alkaline phosphatase (SEAP) reporter gene into HEK293 cells. The SEAP reporter gene is placed under the control of the IFN-b minimal promoter fused to five NF-kB and AP-1-binding sites. Stimulation with a TLR7 ligand activates NF-kB and AP-1 which induce the production of SEAP, which is detected by the HEK-Blue™ Detection cell culture medium.”
A typical assay protocol involved the following steps:
1. Cells were cultured according to the product information sheet.
2. 10 mM compound stock in DMSO were first diluted to 3 mM and then 3-fold serially diluted using DMSO to afford a 10-pt dilution.
3. 3 μl of the diluted DMSO were added to 57 μl HEK-Blue™ Detection media for a further 20-fold dilution.
4. 10 μl of the diluted compound in assay media were added into 40 μl cell culture (in HEK-Blue™ Detection media) in 384-well plate. Final cell concentration=8,000 cells per well.
5. The plates were incubated at 37° C. in 5% CO2 for 16 h. SEAP was determined using a spectrophotometer at 620-655 nm.

[1] = HEK-Blue hTLR7 cells, 16 h incubation, SEAP read at 620-655 nm, read-out: HEK-TLR7 EC50
[2] = HEK TLR7 activity of unconjugated (naked) peptides, read-out: EC50, Peptide without Compound 1

CCCC[C@@H](CCS(C)(=O)=O)Nc1nc(N)nc(C)c1Cc1cc(CC(=O)N[C@@H](C)C(=O)O)ccc1OC [Compound 1-alanine conjugate]
EC50 [1]: 100 nM

CC[C@H](C)[C@H](NC(=O)[C@H](CC(C)C)NC(=O)[C@@H](NC(=O)[C@H](CC(C)C)NC(=O)[C@H](CC(C)C)NC(=O)[C@H](CC(C)C)NC(=O)CN)C(C)C)C(=O)N[C@@H](Cc1ccc(O)cc1)C(=O)N[C@@H](CC(C)C)C(=O)N[C@@H](Cc1ccc(O)cc1)C(=O)NCC(=O)N1CCC[C@H]1C(=O)N[C@@H](CO)C(=O)N[C@@H](CC(C)C)C(=O)N[C@@H](Cc1ccc(O)cc1)C(=O)N[C@@H](CCCNC(=N)N)C(=O)N[C@@H](CCCNC(=N)N)C(=O)N[C@@H](Cc1ccccc1)C(=O)N[C@@H](Cc1ccccc1)C(=O)N[C@@H](CO)C(=O)N[C@@H](CC(N)=O)C(=O)N[C@@H](CC(=O)O)C(=O)N[C@@H](CS)C(=O)N[C@@H](CS)C(=O)N[C@@H](CO)C(=O)O [AP4] (H-GLLLVLIYLYGPSLYRRFFSNDCCS-OH)
EC50 [2]: > 30000 nM

ESLKISQAVHAAHAEINEAGREVVG [AP10]
EC50: > 30000 nM

CCCC[C@@H](CCS(C)(=O)=O)Nc1nc(N)nc(C)c1Cc1cc(CC(=O)N[C@@H](CCC(=O)O)C(=O)N[C@@H](CCC(N)=O)C(=O)N[C@@H](CC(C)C)C(=O)N[C@@H](CO)C(=O)N[C@@H](CO)C(=O)N[C@H](C(=O)N[C@@H](CO)C(=O)N[C@@H](CO)C(=O)N[C@@H](Cc2ccccc2)C(=O)N[C@@H](CCC(=O)O)C(=O)N[C@@H](CCCNC(=N)N)C(=O)N[C@@H](Cc2ccccc2)C(=O)N[C@@H](CCC(=O)O)C(=O)N[C@H](C(=O)N[C@@H](Cc2ccccc2)C(=O)N2CCC[C@H]2C(=O)N[C@@H](CCCCN)C(=O)N[C@@H](CCC(=O)O)C(=O)N[C@@H](CO)C(=O)N[C@@H](CO)C(=O)N[C@@H](Cc2c[nH]c3ccccc23)C(=O)N2CCC[C@H]2C(=O)N[C@@H](CC(N)=O)C(=O)N[C@@H](Cc2c[nH]cn2)C(=O)N[C@@H](CC(N)=O)C(=O)O)[C@@H](C)CC)C(C)C)ccc1OC [*AP11] (X1-EQLSSVSSFERFEIFPKESSWPNHN-OH)
EC50 (HEK TLR7 activity of Compound 1-peptide conjugates, read-out: EC50, Peptide - Compound 1 Conjugate): 300 nM

CCCC[C@@H](CCS(C)(=O)=O)Nc1nc(N)nc(C)c1Cc1cc(CC(=O)O)ccc1OC [Compound 1, (S)-2-(3-((2-amino-4-methyl-6-((1-(methylsulfonyl)heptan-3-yl)amino)pyrimidin-5-yl)methyl)-4-methoxyphenyl)acetic acid]
EC50 [1]: 100 nM

CSCC[C@H](NC(=O)CNC(=O)[C@@H](NC(=O)[C@H](CCCNC(=N)N)NC(=O)[C@@H](NC(=O)[C@H](CC(C)C)NC(=O)[C@H](C)NC(=O)[C@H](CCCNC(=N)N)NC(=O)[C@@H](NC(=O)[C@H](CCCNC(=N)N)NC(=O)[C@H](CCC(N)=O)NC(=O)[C@H](Cc1ccc(O)cc1)NC(=O)[C@@H](NC(=O)[C@@H](NC(=O)[C@H](CC(=O)O)NC(=O)[C@H](CC(N)=O)NC(=O)[C@H](CC(C)C)NC(=O)[C@H](CC(N)=O)NC(=O)[C@H](CO)NC(=O)[C@@H](N)Cc1c[nH]cn1)[C@@H](C)O)[C@@H](C)O)[C@@H](C)O)C(C)C)[C@@H](C)O)C(=O)N[C@@H](CC(=O)O)C(=O)N1CCC[C@H]1C(=O)N[C@@H](CCCNC(=N)N)C(=O)N[C@@H](CCSC)C(=O)N[C@@H](CS)C(=O)O [AP1]
EC50: > 30000 nM

CC[C@H](C)[C@H](NC(=O)[C@H](CCCCN)NC(=O)CNC(=O)[C@@H](NC(=O)[C@@H](NC(=O)[C@H](Cc1ccccc1)NC(=O)[C@H](C)NC(=O)[C@H](CCCNC(=N)N)NC(=O)CNC(=O)[C@@H]1CCCN1C(=O)CNC(=O)[C@H](CCCNC(=N)N)NC(=O)[C@H](CCC(N)=O)NC(=O)[C@@H](NC(=O)[C@H](CCCNC(=N)N)NC(=O)[C@@H](NC(=O)[C@H](CO)NC(=O)[C@H](CCCCN)NC(=O)[C@H](CCCNC(=N)N)NC(=O)[C@@H](N)CCCCN)[C@@H](C)CC)[C@@H](C)CC)C(C)C)[C@@H](C)O)C(=O)NCC(=O)N[C@@H](CC(N)=O)C(=O)N[C@@H](CCSC)C(=O)N[C@@H](CCCNC(=N)N)C(=O)N[C@@H](CCC(N)=O)C(=O)O [AP2]
EC50 [2]: > 30000 nM
